As a reminder, the GI50 is the concentration at which growth is held to half of that of the control.

Eleven compounds from ChEMBL document CHEMBL1201862, “PubChem BioAssay data set” (2004) can be followed below.

Assay in all cases: DTP human tumour cell line panel, 48 h
Assay [1] deals with A549.
Assay [2] deals with M14.
Assay [3] has as its system SF-268.
The subject of assay [4] is LOX IMVI.
The subject of assay [5] is SN12C.
Assay [6] has as its system UO-31.
The test system of assay [7] is EKVX.
For assay [8], the system named is T47D.
Assay [9] relates to RXF 393.
The test system of assay [10] is Malme-3M.
Assay [11] deals with COLO 205.
Assay [12] relates to SNB-19.
Assay [13] has as its system NCI-H226.
In assay [14] the test system is SF-295.
The test system of assay [15] is UACC-257.
In assay [16] the test system is SNB-75.
The test system of assay [17] is K562.
The subject of assay [18] is SK-MEL-28.
The test system of assay [19] is MDA-MB-435.

Molecules are shown by their SMILES.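 Values below derive from 48-hour exposures of cells grown in 96-well plates, with endpoints linearly interpolated between the two concentrations bracketing the appropriate inhibition level. GI50: concentration for 50% inhibition of growth.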 Calls of active or inactive are those of the source. No stated cut-off is given here; in the data, active = GI50 up to about 1.1 µM and inactive = higher.

`N#CCCN(CCC#N)c1ccc(/C=C2\SC(=S)NC2=O)cc1`: the GI50 in assay [1] is > 100 µM (inactive); in [2] it was > 100 µM (inactive); in assay [3], > 100 µM (inactive); in assay [4], 34.6 µM (inactive); in assay [5], > 100 µM (inactive); in assay [6] it was > 100 µM (inactive). Besides, the GI50 in assay [7] was > 100 µM (inactive); in [8], > 100 µM (inactive); in assay [9], 37.9 µM (inactive); in [10], > 100 µM (inactive); in assay [11] it was > 100 µM (inactive); in [12] it was 33.9 µM (inactive). The GI50 in [13] was > 100 µM (inactive); in [14], 39.4 µM (inactive); in assay [15] it was > 100 µM (inactive); in assay [16], 50.2 µM (inactive); in assay [17], > 100 µM (inactive); in assay [18] it was > 100 µM (inactive). Moreover, the GI50 in assay [19] is > 100 µM (inactive).

For the compound `CCOC(=O)C1(Cc2c[nH]c3ccccc23)C(O)CCCN1C(C)=O` (stereo unspecified), the GI50 in assay [1], in [2], in assay [3], in [4], in assay [6] and in [7] was > 100 µM (inactive) throughout. Besides, the GI50 in assay [8], in [9], in [10], in [11], in [12] and in [13] was > 100 µM (inactive) in each case. For the same compound, the GI50 in [14], in [15], in [16], in [17], in assay [18] and in assay [19] was > 100 µM (inactive) each time.

For the compound `C=C1C(=O)C2=CC1CCC(=O)C1(C)CCC(OC(C)=O)C(C)(C)C1CC2O` (stereo unspecified), the GI50 is 4.38 µM (inactive) in assay [1]; 2.64 µM (inactive) in [2]; 3.4 µM (inactive) in assay [3]; 1.14 µM (inactive) in assay [4]; 2.53 µM (inactive) in assay [5]; 2.06 µM (inactive) in assay [6]. The GI50 in [7] was 3.91 µM (inactive); in [8], 3.74 µM (inactive); in assay [9] it was 2.23 µM (inactive); in assay [10], 2.37 µM (inactive); in [11] it was 0.771 µM (active); in assay [12] it was 3.58 µM (inactive). In addition, the GI50 is 7.76 µM (inactive) in [13]; 9.31 µM (inactive) in assay [14]; 3.73 µM (inactive) in assay [15]; 8.32 µM (inactive) in assay [16]; 0.352 µM (active) in assay [17]; 3.66 µM (inactive) in [18]. The GI50 in assay [19] was 3.24 µM (inactive).

Turning to `N#Cc1c(N)c2c(c(-c3ccccc3)c1-c1ccccc1)C(=O)N(O)C2=O`, the GI50 in assay [1] was 31 µM (inactive); in assay [2] it was > 100 µM (inactive); in [3], > 100 µM (inactive); in assay [4], 89.7 µM (inactive); in assay [5], > 100 µM (inactive); in assay [6], 37 µM (inactive). For the same compound, the GI50 in assay [7] is 36.6 µM (inactive); in assay [8], 22.8 µM (inactive); in assay [9], 10.5 µM (inactive); in assay [10], > 100 µM (inactive); in [11], 20.2 µM (inactive); in [12], 37.8 µM (inactive). For the same compound, the GI50 in assay [13] was 18.8 µM (inactive); in assay [14], 38.7 µM (inactive); in assay [15], > 100 µM (inactive); in [16], 34 µM (inactive); in [17], 91.8 µM (inactive); in assay [18], 40.7 µM (inactive). Besides, in assay [19], the GI50 is 79.4 µM (inactive).

In the case of `O=C(O)Cc1ccccc1` [PHENYLACETIC ACID], the GI50 in assay [1], in assay [2], in assay [3], in assay [4], in assay [5] and in [6] was > 100 µM (inactive) each time. In addition, the GI50 in [7], in assay [8], in [9], in [10], in assay [11] and in [12] was > 100 µM (inactive) in each case. Further, the GI50 in assay [13] was > 100 µM (inactive); in assay [14], 841 µM (inactive); in assay [15], > 100 µM (inactive); in [16], > 100 µM (inactive); in [17], > 100 µM (inactive); in assay [18], > 100 µM (inactive). The GI50 in assay [19] was > 100 µM (inactive).

With `Nn1c(S)nnc1C12CC3CC(CC(C3)C1)C2`, the GI50 in assay [1], in assay [2], in assay [3], in assay [4], in assay [5] and in assay [6] was > 100 µM (inactive) each time. The GI50 in [7], in [8], in assay [9], in assay [10], in assay [11] and in [12] was > 100 µM (inactive) throughout. For the same compound, the GI50 in [13], in assay [14], in assay [16], in [17], in [18] and in assay [19] was > 100 µM (inactive) throughout.

As to `CC(=O)OCC1OC(n2c3c(cc(C#N)c2=S)CCCCC3)C(OC(C)=O)C(OC(C)=O)C1OC(C)=O` (stereo unspecified), the GI50 in assay [1], in assay [2], in assay [3], in assay [4], in assay [5] and in assay [6] was > 100 µM (inactive) each time. For the same compound, the GI50 in assay [8] is 29.4 µM (inactive); in [9], > 100 µM (inactive); in assay [10], > 100 µM (inactive); in assay [11], > 100 µM (inactive); in [12], > 100 µM (inactive); in assay [13], > 100 µM (inactive). Besides, the GI50 in assay [14] was > 100 µM (inactive); in assay [15] it was > 100 µM (inactive); in assay [16], 99.1 µM (inactive); in [17] it was > 100 µM (inactive); in assay [18], > 100 µM (inactive); in [19], > 100 µM (inactive).

For `Nc1n[nH]c(Nc2ccc(Cl)cc2)c1P(=O)(c1ccccc1)c1ccccc1`, the GI50 is 23.9 µM (inactive) in assay [1]; 21.3 µM (inactive) in [2]; 15.2 µM (inactive) in [3]; 31.6 µM (inactive) in [4]; 29.4 µM (inactive) in assay [6]; 35.2 µM (inactive) in assay [7]. Besides, the GI50 in [8] was 58.7 µM (inactive); in [9], 20.9 µM (inactive); in [10], 21.5 µM (inactive); in [11], 49.4 µM (inactive); in assay [12], 26.7 µM (inactive); in [13], 24.3 µM (inactive). Also, the GI50 is 18.6 µM (inactive) in assay [14]; 31.3 µM (inactive) in assay [15]; 21.6 µM (inactive) in [16]; 64.9 µM (inactive) in assay [17]; 25.7 µM (inactive) in assay [18]; 19.1 µM (inactive) in assay [19].

`CCCCP(CCCC)(CCCC)=C(C(=O)OC)C(C(=O)OC)=C1SC(C(=O)OC)=C(C(=O)OC)S1`: the GI50 in assay [1] is 17.6 µM (inactive); in [2] it was 15.2 µM (inactive); in [3] it was 30.6 µM (inactive); in [4] it was 13.2 µM (inactive); in [5], 15.5 µM (inactive); in [6], 20.3 µM (inactive). Further, the GI50 in [7] is 27.2 µM (inactive); in [8], 13.5 µM (inactive); in [9] it was 10.3 µM (inactive); in assay [10], 18.2 µM (inactive); in assay [11] it was 17 µM (inactive); in assay [12] it was 20.3 µM (inactive). The GI50 was 20 µM (inactive) in [13]; 19.3 µM (inactive) in assay [14]; 17.6 µM (inactive) in [15]; 17.5 µM (inactive) in assay [16]; 15.5 µM (inactive) in assay [18]; 14.8 µM (inactive) in [19].

Consider `O=[N+]([O-])c1sc2ccc(Cl)cc2c1Nc1ccc(Cl)cc1`, for which the GI50 in assay [1], in assay [2], in [3], in assay [4], in [5] and in assay [6] was > 100 µM (inactive) each time. Moreover, the GI50 in assay [7], in [8], in assay [9], in assay [10], in assay [11] and in assay [12] was > 100 µM (inactive) throughout. Besides, the GI50 in assay [13], in assay [14], in assay [16], in assay [17], in [18] and in [19] was > 100 µM (inactive) each time.

On to `c1ccc2c(CCNC3=NCCO3)cccc2c1`, for which the GI50 was > 10 µM (inactive) in [1]; > 10 µM (inactive) in [2]; > 10 µM (inactive) in assay [3]; > 10 µM (inactive) in [4]; 4.26 µM (inactive) in assay [6]; > 10 µM (inactive) in assay [7]. The GI50 in [8], in assay [9], in assay [10], in assay [11], in assay [12] and in assay [13] was > 10 µM (inactive) each time. In addition, the GI50 in [14], in assay [16], in assay [17], in assay [18] and in assay [19] was > 10 µM (inactive) each time.
